Reference: US4214091A, “Antibiotic No. 2-200 and process for producing thereof” (Chugai Seiyaku Kabushiki Kaisha, priority 1977, dated 1980)
≈ marks a conversion by molar mass, not a printed value. Where two headings read alike, the source gives them in different places.

What was measured:
Bacteroides fragilis V-6 = assay: MIC, GAM agar, anaerobic; type: cell-based; conditions: V6, 40 h, read-out: Minimum inhibitory concentration (MIC)
Experimental: (§1) Minimum inhibitory concentration (MIC) for gram
(§2) Note: incubated at 37° C. for 40 hours on GAM agar medium (product
(§3) of Nippon Seiyaku) using anaerobic incubator. Inoculated with 10^6

Bacteroides fragilis V-7 = assay: MIC, GAM agar, anaerobic; type: cell-based; conditions: V7, 40 h, read-out: Minimum inhibitory concentration (MIC)
Experimental: as §1, §2, §3

Bacteroides fragilis V-8 = assay: MIC, GAM agar, anaerobic; type: cell-based; conditions: V8, 40 h, read-out: Minimum inhibitory concentration (MIC)
Experimental: as §1, §2, §3

[1] = tested on: Fusobacterium glutinosum 1006; assay: MIC, GAM agar, anaerobic; type: cell-based; conditions: 37° C., 40 hours, inoculum 10^6/ML, read-out: Minimum inhibitory concentration (MIC)
Experimental: as §1, §2, §3

[2] = tested on: Fusobacterium necroforum S-45; assay: MIC, GAM agar, anaerobic; type: cell-based; conditions: S45, 37° C., 40 hours, inoculum 10^6/ML, read-out: Minimum inhibitory concentration (MIC)
Experimental: as §1, §2, §3

[3] = tested on: Bacillus subtilis PCI-219; assay: MIC by agar plate dilution method; type: cell-based; conditions: 37° C., 24 hours
Experimental: (§4) The test organisms were incubated by agar plate dilution method at 37° C. for 24 hours, after which their growth was observed. The test organisms were incubated on an NB medium (product of Eiken Kagaku) at 37° C. overnight, and each culture obtained was diluted 10^3 - to 10^4 -fold and stamped on an agar plate. The following agar plate media were used:
(§5) NA: nutrient agar (product of Eiken Kagaku)
(§6) NA+G6P: glucose-6-phosphoric acid (50 μg/ml) plus nutrient agar
(§7) Anti-3A: antibiotic medium No. 3 agar (product of Difco)
(§8) MHA: Mueller Hinton Agar (product of Eiken Kagaku)

Bacillus thuringensis = assay: MIC by agar plate dilution method; type: cell-based; conditions: 24 h, 37° C., read-out: Minimum inhibitory concentration
Experimental: as §4, §5, §6, §7, §8

Escherichia coli NIHJ = assay: MIC by agar plate dilution method; type: cell-based; conditions: 24 h, 37° C., read-out: Minimum inhibitory concentration
Experimental: as §4, §5, §6, §7, §8

[4] = tested on: Pseudomonas aeruginosa M57740; assay: MIC by agar plate dilution method; type: cell-based
Experimental: as §4, §5, §6, §7, §8

[5] = tested on: Salmonella enteritidis T-1; assay: MIC by agar plate dilution method; type: cell-based; conditions: Salmonella enterica, 24 h, 37° C., read-out: Minimum inhibitory concentration
Experimental: as §4, §5, §6, §7, §8

[6] = tested on: Staphylococcus aureus 222; assay: MIC by agar plate dilution method; type: cell-based; conditions: Staphylococcus aureus, 222, 24 h, 37° C., read-out: Minimum inhibitory concentration
Experimental: as §4, §5, §6, §7, §8

[7] = tested on: Staphylococcus aureus A-5; assay: MIC by agar plate dilution method; type: cell-based; conditions: A5, 24 h, 37° C., read-out: Minimum inhibitory concentration
Experimental: as §4, §5, §6, §7, §8

[8] = acute toxicity, single administration; conditions: mouse, in vivo, pH 7, read-out: median lethal dose (LD50)
Experimental: The crystal of the antibiotic No. 2-200 obtained in Example 4 was floated in sterile distilled water, mixed with 5% caustic soda to adjust the pH to 7.0, and dissolved to make a solution. The solution was adminstered to 5-week-old ddY male mice to examine its actuate toxicity as well as delayed toxicity. During 10 days that followed the administration, the weight of each mouse, its food intake and water intake were measured.

Solubility in solvents = type: physicochemical
mammals = conditions: in vivo

## C=CC(C)=CC1(C)SC(=O)C(C)=C1O (single isomer, unassigned) [No. 2-200]
Bacteroides fragilis V-6
  MIC: 3.12 µg/mL (≈ 14.8 µM)
Bacteroides fragilis V-7
  MIC: 12.5 µg/mL (≈ 59.4 µM)
Bacteroides fragilis V-8
  MIC: 6.25 µg/mL (≈ 29.7 µM)
[1]
  MIC: 100 µg/mL (≈ 476 µM)
[2]
  MIC: 3.12 µg/mL (≈ 14.8 µM)
[3]; Anti-3A
  Minimum inhibitory concentration: 50 µg/mL (≈ 238 µM)
[3]; Bacillus subtilis, PCI219, NA, read-out: Minimum inhibitory concentration
  MIC: 50 µg/mL (≈ 238 µM)
[3]; MHA
  Minimum inhibitory concentration: 50 µg/mL (≈ 238 µM)
[3]; NA + G6P (50 μg/ml)
  Minimum inhibitory concentration: 50 µg/mL
Bacillus thuringensis; Anti-3A
  MIC: 50 µg/mL (≈ 238 µM)
Bacillus thuringensis; MHA
  MIC: 50 µg/mL (≈ 238 µM)
Bacillus thuringensis; NA + G6P (50 μg/ml)
  MIC: 25 µg/mL
Bacillus thuringensis; NA
  MIC: 50 µg/mL (≈ 238 µM)
Escherichia coli NIHJ; Anti-3A
  MIC: 200 µg/mL (≈ 951 µM)
Escherichia coli NIHJ; MHA
  MIC: 50 µg/mL (≈ 238 µM)
Escherichia coli NIHJ; NA + G6P (50 μg/ml)
  MIC: 100 µg/mL
Escherichia coli NIHJ; NA
  MIC: 200 µg/mL (≈ 951 µM)
[4]; M57740, 24 h, read-out: Minimum inhibitory concentration, Anti-3A, 37° C.
  MIC: 1.56 µg/mL (≈ 7.42 µM)
[4]; M57740, 24 h, read-out: Minimum inhibitory concentration, NA + G6P (50 μg/ml), 37° C.
  MIC: 1.56 µg/mL
[4]; M57740, 24 h, read-out: Minimum inhibitory concentration, NA, 37° C.
  MIC: 1.56 µg/mL (≈ 7.42 µM)
[4]; M57740, MHA, 37° C., 24 hours, read-out: Minimum inhibitory concentration
  MIC: ≤ 0.78 µg/mL
[5]; Anti-3A
  MIC: 3.12 µg/mL (≈ 14.8 µM)
[5]; MHA
  MIC: 3.12 µg/mL (≈ 14.8 µM)
[5]; NA + G6P (50 μg/ml)
  MIC: 6.25 µg/mL
[5]; NA
  MIC: 6.25 µg/mL (≈ 29.7 µM)
[6]; Anti-3A
  MIC: > 400 µg/mL
[6]; MHA
  MIC: 100 µg/mL (≈ 476 µM)
[6]; NA + G6P (50 μg/ml)
  MIC: ≥ 400 µg/mL
[6]; NA
  MIC: > 400 µg/mL
[7]; Anti-3A
  MIC: 25 µg/mL (≈ 119 µM)
[7]; MHA
  MIC: 50 µg/mL (≈ 238 µM)
[7]; NA + G6P (50 μg/ml)
  MIC: 25 µg/mL
[7]; NA
  MIC: 50 µg/mL (≈ 238 µM)
[8]; ip
  LD50 at 240 h: 810 mg/kg
[8]; iv
  LD50 at 240 h: 705 mg/kg
Solubility in solvents; acetone
  solubility: easily soluble
Solubility in solvents; alkaline water
  solubility: easily soluble
Solubility in solvents; ethyl acetate
  solubility: easily soluble
Solubility in solvents; methanol
  solubility: easily soluble
Solubility in solvents; neutral to acidic water
  solubility: slightly soluble
mammals
  delayed toxicity (general statement): no delayed toxicity
